Test results taken from paper PMC9822434, “Estradiol-Based Salicylaldehyde (Thio)Semicarbazones and Their Copper Complexes with Anticancer, Antibacterial and Antioxidant Activities” (Molecules, 2022).
≈ marks a conversion by molar mass, not a printed value. Read-outs that look alike come from different tables or passages of the source.

What was measured:
MCF-7 KCR = assay: MTT cytotoxicity assay; type: cell-based, human; conditions: for effect on cell viability (in words): up to 20 µM, 24 h
Description: (§1) To test the biological effects of the Cu(II) complexes and the ligands on human cancer cells, DU-145 prostate, A549 lung, and MCF-7 breast adenocarcinoma cells, as well as the multidrug-resistant MCF-7 KCR breast cancer cells were utilized. All the cell lines were maintained in RPMI-1640 media (Biosera, Nuaille, France) complemented with 10% fetal bovine serum (FBS), 2 mM L-glutamine, 0.01% streptomycin and 0.005% penicillin, (Biosera, Nuaille, France) and were cultured under standard conditions in a 37 °C incubator at 5% CO2 and 95% humidity. The cell lines were originally obtained from ATCC.
(§2) The effect of the complexes and of their ligands alone on the viability (on the metabolic activity) of human cancer cells was assessed by MTT assay. The tested compounds were dissolved in 90% (v/v) DMSO/H2O at 10 mM concentration. Equimolar solutions of the ligand CuCl2 salt were used for the cytotoxicity assays. The metal salts without ligands were also tested. For this, 1 × 10^4 cells/well were seeded into 96-well plates and left to grow overnight. On the following day, cells were exposed to increasing concentrations of each compound (0; 2.5; 5; 10; 15; 20 µM). After a 24 h incubation, cells were washed with PBS buffer and then incubated with 0.5 mg/mL MTT (Sigma-Aldrich, St Louis, Missouri, MO, USA) for 1 h at 37 °C. The formazan crystals were solubilized in DMSO (Molar Chemicals, Halásztelek, Hungary), and the absorbance of samples was determined at 570 nm using a Synergy HTX plate reader (BioTek, Winooski, Vermont, VT, USA). Absorption corresponding to the untreated control samples was considered as 100%.

MCF-7 = assay: MTT cytotoxicity assay; type: cell-based, human; conditions: MCF-7, MTT; for IC50: 24 h incubation time; for effect on cell viability (in words): up to 20 µM, 24 h
Description: as §1, §2

A549 = assay: MTT cytotoxicity assay; type: cell-based, human; conditions: for IC50: 24 h incubation time; for effect on cell viability (in words): up to 20 µM, 24 h
Description: as §1, §2

DU-145 = assay: MTT cytotoxicity assay; type: cell-based, human; conditions: DU-145, MTT; for effect on cell viability (in words): up to 20 µM, 24 h; for IC50: 24 h incubation time
Description: as §1, §2

[1] = type: physicochemical; conditions: for logβ [CuLH−1] / logβ [CuL]+: Cu(II) complex of the named ligand, 30% (v/v) DMSO/H2O, T = 25.0 °C, I = 0.1 M (KCl); for pCu5.0: calculated at pH 5.0, cCu(II) = 20 µM; for pCu5.0 / pCu6.0 / pCu7.4: cligand = 20 µM; for pCu6.0: estimated at pH 6.0, cCu(II) = 20 µM; for pCu7.4: estimated at pH 7.4, cCu(II) = 20 µM
Description: (§3) An Orion 710A pH-meter equipped with a Metrohm combined electrode (type 6.0234.100) and a Metrohm 665 Dosimat burette were used for the UV–vis titrations at 25.0 ± 0.1 °C. Ionic strength of 0.10 M (KCl) was used to keep the activity coefficients constant. The titrations were performed with carbonate-free KOH solution of known concentration (0.10 M) with 30% (v/v) DMSO content. […] The average water ionization constant (pKw) is 14.54 ± 0.05 in the 30% (v/v) DMSO/H2O mixture. Argon was always passed over the solutions during the titrations. An Agilent Cary 8454 diode array spectrophotometer was used to record the UV–vis spectra at an interval of 200–800 nm. The path length was 2 cm. Spectrophotometric titrations were performed using a 0.1 M KOH titrant solution with 30% (v/v) DMSO on samples with 30% (v/v) DMSO containing HCl, KCl and the ligand at 20 μM concentration in the pH range 2.0–12.5 in the absence or in the presence of 1 or 0.5 equiv. Cu(II) ions. Proton dissociation constants (Ka) of the TSC ligands, the overall stability constants (β) of the Cu(II) complexes and the UV–vis spectra of the individual species were calculated by the computer program PSEQUAD [41] as was done in our previous works.

E. faecalis ATCC 29212 = assay: MIC determination; type: cell-based, Enterococcus faecalis; conditions: Gram-positive E. faecalis ATCC 29212, Mueller Hinton Broth
Description: (§4) Klebsiella pneumoniae (ATCC 49619), Escherichia coli (ATCC 25922), Staphylococcus aureus (ATCC 25928) and Enterococcus faecalis (ATCC 29212) strains were used as Gram-negative and Gram-positive bacterial cultures. The stock solutions of the tested compounds (dissolved in 90% (v/v) DMSO/H2O at 10 mM concentration) were diluted in 100 μL of Mueller Hinton Broth, and then two-fold serial dilutions were performed. As a starting point, 100 μM concentration of the compounds was used. Then, 10^−4 dilution of an overnight bacterial culture in 100 μL of medium was added to each well, with the exception of the medium control wells. Minimum inhibitory concentration (MIC) values of compounds were determined according to our previous work.

physchem = type: physicochemical
Description: as §3

[2] = DPPH free radical scavenging assay; conditions: for % Scavenging Effect: DPPH:compound = 1:1 ratio after 30 min, ethanol; for IC50: in ethanol, T = 25 °C, cDPPH = 50 µM, ccompound = 5−50 µM
Description: The DPPH (Sigma-Aldrich) free radical scavenging capacity was studied at 25.0 ± 0.1 °C on an Agilent Cary 3500 spectrophotometer with tightly closed tandem cuvette according to our approach with some modifications. The stock solution of DPPH (100 µM) was prepared in ethanol, and 0.5 mL of this solution was added to one pocket of the cuvette and 0.5 mL of the tested compound in different concentrations in ethanol was added to another. The final concentration of the studied compounds was in the range 5–50 µM, where for DPPH concentration, it was always 50 µM. A standard compound Trolox (Sigma-Aldrich) was used as a positive control. The percentage of the antioxidant activity (AA), IC50 values (the concentration of compound at which it reduced 50% of DPPH) and Trolox equivalent antioxidant capacity (TEAC) were calculated.

S. aureus ATCC 25928 = assay: MIC determination; type: cell-based, Staphylococcus aureus; conditions: Gram-positive S. aureus ATCC 25928, Mueller Hinton Broth
Description: as §4

[3] = direct redox reaction of the Cu(II) complexes with GSH (UV–vis, anaerobic); type: physicochemical; conditions: Cu(II) complex (25 µM) of the named ligand with GSH (1.25 mM), pH 7.4, anaerobic, 30% (v/v) DMSO/H2O, 25.0 °C
Description: (§5) The redox reaction of the Cu(II) complexes with GSH and ascorbic acid was studied at 25.0 ± 0.1 °C, at pH 7.40 (10 mM HEPES with 0.1 M KCl) on an Agilent Cary 8454 diode array spectrophotometer using a special, tightly closed tandem cuvette (Hellma Tandem Cell, 238-QS). The complex and the reducing agent were separated until the reaction was triggered. Both isolated pockets of the tandem cuvette were completely deoxygenated by bubbling argon for 10 min before mixing the reactants. Spectra were recorded before and then immediately after the mixing, and changes were followed till no further absorbance change was observed. The stock solutions of the reducing agents and the complexes were freshly prepared every day.
During the calculations, the absorbance (A)−time (t) curves were fitted and analyzed at the λmax of the complex. (A0 − Afinal) × e ^(−a×t) + Afinal equation was used where A0, Afinal and a parameters were refined and accepted at the minimal value of the weighted sum of squared residuals (difference between the measured and calculated absorbance values) at the given wavelength. Then observed rate constants (kobs) of the redox reaction were obtained from the data points of the simulated absorbance–time curves as the slope of the ln(A/A0) versus t plots.

[4] = cited from earlier work
[5] = cited from earlier work; for logβ [CuLH−1] / logβ [CuL]+: 30% (v/v) DMSO/H2O, T = 25.0 °C, I = 0.1 M (KCl); for pCu7.4: pH 7.4, cCu(II) = 20 µM, cligand = 20 µM
[6] = test system: HCT-116 colon cancer cell line; set-up: method as in doi:10.1039/D0NJ01070G, PMID 34453218, PMID 33951554; conditions: cited from earlier work
[7] = cyclic voltammetry of Cu(II)-(T)SC (1:1) systems; type: physicochemical; conditions: 90% (v/v) DMSO/H2O, pH 7.40 (10 mM HEPES), 10 mV/s, 25 °C, I = 0.1 M (nBu4NPF6)
Description: Cyclic voltammograms of TSCs derivatives and their Cu(II) complexes at 25.0 ± 0.1 °C were recorded. nBu4NPF6 was used as a supporting electrolyte, and measurements were performed at pH 7.4. The complexes were obtained by mixing the ligand dissolved in DMSO with aqueous solution of CuCl2 in 1:1 ratio. The final concentration of stock was 1 mM. Measurements were performed on a conventional three-electrode system under argon atmosphere using an Autolab PGSTAT 204 potentiostat/galvanostat monitored with Metrohm’s Nova software. Samples were purged for 10 min with argon before recording the cyclic voltammograms. Platinum electrode was used as the working and auxiliary electrode and Ag/AgCl/3 M KCl as the reference electrode. The electrochemical system was calibrated with an aqueous solution of K3[Fe(CN)6] (E1/2 = +0.458 V vs. NHE). Redox potentials were obtained at 10 mV/s scan rate in the range of −1.3 to +0.8 V.

[8] = direct redox reaction of the Cu(II) complexes with ascorbic acid (UV–vis, anaerobic); type: physicochemical; conditions: Cu(II) complex 25 µM, 50 equiv. ascorbic acid, pH 7.4, 30% (v/v) DMSO/H2O
Description: as §5

[9] = Cu(II) complex (25 µM) with GSH (1.25 mM), pH 7.4, anaerobic; cited from earlier work

Structure (SMILES): C[C@]12CC[C@@H]3c4cc(C=NNC(N)=O)c(O)cc4CC[C@H]3[C@@H]1CCC2O (stereo partly shown) [estradiol-SC, 2-[(3,17 Dihydroxy-estra-1,3,5(10)-triene-2-yl)methylene]Hydrazine-1-carboxamide]
- IC50 (MCF-7 KCR; Homo sapiens, MCF7, 24 h incubation time): > 20 µM
- effect on cell viability (in words) (MCF-7 KCR): only slightly toxic
- IC50 (MCF-7; Homo sapiens, MCF7): > 20 µM
- effect on cell viability (in words) (MCF-7): neither the estradiol-SC nor the Cu(II)-estradiol-SC complex exhibit any harmful effect
- IC50 (A549; Homo sapiens): > 20 µM
- effect on cell viability (in words) (A549): only slightly toxic
- effect on cell viability (in words) (DU-145): neither the estradiol-SC nor the Cu(II)-estradiol-SC complex exhibit any harmful effect
- IC50 (DU-145; Homo sapiens): > 20 µM
- pKa [CuL]+ [1]: 6.48
- logβ [CuLH−1] [1]: 5.16 ± 0.03
- logβ [CuL]+ [1]: 11.63 ± 0.03
- pCu5.0 [1]: 5.7
- pCu6.0 [1]: 6.3
- pCu7.4 [1]: 7.8
- MIC (E. faecalis ATCC 29212; Enterococcus faecalis, ATCC29212): > 100 µM
- pKa (physchem): 10.02 ± 0.03
- % Scavenging Effect ([2]; 25 °C): 6.5%
- IC50 [2]: > 50 µM
- MIC (S. aureus ATCC 25928): 50 µM (≈ 17.9 µg/mL)
- MIC (S. aureus ATCC 25928; Staphylococcus aureus, ATCC25928): 50 µM (≈ 17.9 µg/mL)
- melting point: 238 °C
- kobs [3]: fast reaction

Structure (SMILES): NC(=O)N/N=C/c1ccccc1O [SSC]
- pKa ([4]; salicylaldehyde SC): 9.30

Structure (SMILES): CNC(=S)NN=Cc1cc2c(cc1O)CCC1C2CCC2(C)C(=O)CCC12 (stereo not shown) [Me-estrone-TSC]
- pCu5.0 [1]: 7.7
- pCu6.0 [1]: 9.2
- logβ [CuLH−1] [5]: 9.66 ^3
- logβ [CuL]+ [5]: 13.64 ^3
- pCu7.4 [5]: 11.9 ^3
- IC50 [6]: 25 µM
- kobs [3]: 0.05 ^4 min^−1

Structure (SMILES): CN(C)C(=S)NN=Cc1cc2c(cc1O)CCC1C2CCC2(C)C(=O)CCC12 (stereo not shown) [Me2-estrone-TSC, reference compound]
- pKa [CuL]+ [1]: 3.92 ^4
- logβ [CuLH−1] [1]: 9.44 ± 0.07 ^4
- logβ [CuL]+ [1]: 13.36 ± 0.08 ^4
- pCu5.0 [1]: 8.0
- pCu6.0 [1]: 9.7
- pCu7.4 [1]: 12.5 ^4
- pKa (physchem): 9.02 ± 0.03 ^4
- IC50 [6]: 21 µM
- kobs [3]: 0.05 ^4 min^−1

Structure (SMILES): C[C@]12CC[C@@H]3c4cc(/C=N/N=C(N)[O-])c([O-])cc4CC[C@H]3[C@@H]1CC[C@@H]2O.O.[Cu+2] [Cu(II)-estradiol-SC]
- formal potential E’ vs. Ag/AgCl/3M KCl [7]: +0.10 V
- IC50 (MCF-7 KCR; 24 h incubation time): > 20 µM
- effect on cell viability (in words) (MCF-7 KCR): only slightly toxic
- IC50 (MCF-7): > 20 µM
- effect on cell viability (in words) (MCF-7): neither the estradiol-SC nor the Cu(II)-estradiol-SC complex exhibit any harmful effect
- IC50 (A549): > 20 µM
- effect on cell viability (in words) (A549): only slightly toxic
- IC50 (DU-145): > 20 µM
- effect on cell viability (in words) (DU-145): neither the estradiol-SC nor the Cu(II)-estradiol-SC complex exhibit any harmful effect
- MIC (E. faecalis ATCC 29212): >100 µM
- reduction by ascorbic acid (in words) [8]: remarkable spectral changes
- % Scavenging Effect ([2]; 25 °C): 8.5%
- IC50 [2]: > 50 µM
- MIC (S. aureus ATCC 25928): 50 µM
- kobs [3]: rapid reduction of Cu(II)

Structure (SMILES): NC(=S)N/N=C/c1ccccc1O [STSC, salicylaldehyde TSC, reference compound]
- pKa ([4]; salicylaldehyde TSC): 8.84
- TEAC (Trolox equivalent antioxidant capacity) ([2]; DPPH assay in ethanol, 25 °C): 0.6
- % Scavenging Effect ([2]; 25 °C): 23.4%
- IC50 [2]: 19 µM

Structure (SMILES): CC12CCC3c4cc(C=NNC(N)=O)c(O)cc4CCC3C1CCC2=O (stereo not shown) [estrone-SC]
- kobs [9]: fast reaction ^1
- pCu5.0 [1]: 5.8
- pCu6.0 [1]: 6.3
- logβ [CuLH−1] [5]: 4.82 ^1
- logβ [CuL]+ [5]: 11.26 ^1
- pCu7.4 [5]: 7.5 ^1
